In PubChem BioAssay AID1117278 (The Scripps Research Institute Molecular Screening Center, 2014):
Calls of active or inactive are those of the source. The rule behind the calls is not given here.

Test system: P. falciparum stage V gametocytes, BacTiter-Glo ATP, 24 h
Assay: viability inhibitors of stage V gametocytes – luminescence, dose response (AID 1117278)

`O=C(C[N+]12CCC(CC1)C(OC(=O)c1ccccc1)C2)c1ccc([N+](=O)[O-])cc1` (stereo unspecified) was tested, and the IC50 was > 109 µM (inactive).
